Test results taken from patent US20250000979A1, “TRIPLET-TRIPLET ENERGY TRANSFER WITH LIGHT EXCITATION AT LONG WAVELENGTHS AND METHODS THEREOF” (priority 2023, published 2025).
Where “and” joins values, the source holds several entries; their conditions need not be identical. Equal values may be shown once. Marks after values point to notes of the source that are not given here.

Key:
[1] = Photoreaction quantum yields and cross sections (HPLC, Reinecke's salt actinometry); type: physicochemical
Procedure: Quantum yields of the photoreactions (Φ) are defined as:
The number of reacted molecules (e.g., consumption of prodrugs or generation of free drugs) were determined by HPLC. The absorbed photon number was determined by Reinecke's salt actinometry at excitation wavelengths of 530 nm and 690 nm^35, 36. The power densities were 50 mW/cm^2 (530 nm) and 100 mW/cm^2 (690 nm).

[2] = Photolysis of BODIPY prodrugs in solution, analysed by HPLC; type: physicochemical
Procedure: BODIPY photocage was conjugated with the free drug molecules to form photoactivable prodrugs with photolabile linkages, including ester and carbamate. The light illumination was performed with a NIR lamp, of which the parameters were 100 mW/cm^2, 690 nm for 5 min, in a N2-saturated solution containing 0.1 equiv. of Os(bptpy)2^2+ and 1 equiv. of prodrugs. […] In addition, the photocage was conjugated with drug molecules with amine groups to produce prodrugs with photolabile carbamate bonds.
The photolysis efficiency of BODIPY prodrugs were compared in different conditions, including different excitation wavelengths (690 nm or 530 nm), different ratios of Os(bptpy)2^2+, and different oxygen contents. […] The solvent was 88% methanol mixed by 10% dichloromethane and 2% acetone. For the N2-saturated groups, after dissolving the molecules, the solution was degassed with a vacuum pump for 10 min followed by gentle N2 blowing. After light irradiation, the resulted mixtures were refilled to 100 μL with methanol to avoid the error caused by solvent evaporation. The resulted solution was loaded onto the sampler and analyzed by high-performance liquid chromatography. An elution method was used to separate free drug, BODIPY photocage and prodrug on the C18 column.

[3] = red-light irradiation (625 nm), platinum photosensitizer PtTPBP; ref 17 / US2021/0228719; cited from earlier work
[4] = in toluene, calculated by TD-DFT, referred to previous studies; cited from earlier work
[5] = Encapsulation efficiency and loading capacity of Os/BC NP (HPLC); type: physicochemical; settings: component of Os/BC NP
Procedure: Flash nanoprecipitation method was used to fabricate the photosensitizer/prodrug-loading nanoparticles. […] Different formulations (Os NPs, BC NPs and Os/BC NPs) were then prepared with optimized ratios of components. Briefly, 224 μL of the mixed stock solution was added into 1.8 mL N2-saturated water under vortexing. The resulted solutions were added to dialysis bags (MW: 3400 Da) and dialyzed against 4 L of water for 24 h. The water out of dialysis bag was renewed every 8 h. The resulted solution of NPs was collected and filtrated with 220 nm filter. Finally, the NPs solutions were concentrated by ultrafiltration (Mw=100 kDa, 2000×g, 10 min) and stored at 4° C. until use. The concentrations of each component were measured by using HPLC. Loading capacity and encapsulation efficiency were calculated as follow: […]

[6] = Photophysical properties (UV-Vis absorption, emission, energy levels); type: physicochemical
Text: The absorption peak at about 492 nm is identified as the singlet metal-to-ligand charge transfer (^1MLCT) absorption, also termed as singlet-singlet (S-S) absorption. […] The two twistable bromophenyl groups of the bromophenyl terpyridine ligands extend the S-T absorption from 650 nm to 750 nm with increased absorption coefficient.
CombiFlash Rf chromatography instrument was purchased from Teledyne ISCO (Lincoln, USA) for chemical purification. Light sources used in this study were purchased from Yuanming Laser (Ningbo, China) and Mightex (CA, USA). The purity verification and photolysis study were conducted with a high-performance liquid chromatography (HPLC) system (Agilent technologies, 1260), attached with C-18 columns which were obtained from Agilent (Santa Clara, California, United States). Nuclear magnetic resonance (NMR) spectroscopy was collected by Bruker AVANCE III HD 500 spectrometer (MA, US). Fluorescence, phosphorescence and UV-vis spectra were collected by a SpectraMax M4 microplate reader (Molecular Devices, CA, US). The particle size and surface charge were recorded by a dynamic light scattering (DLS) device, Zetasizer Nano-ZS90 (Malvern instruments, UK). Transmission electron microscope (TEM) imaging was conducted on a Hitachi HT7700 TEM (Tokyo, Japan). ACEA NovoCyte Quanteon flow cytometer (ACEA Biosciences, CA, USA) was used for flow cytometry. In vivo and ex vivo imaging of the mice were conducted with an In Vivo Imaging System (PerkinElmer, USA). Devices for animal study like including balance and vernier caliper were kindly provided by The Centre for Comparative Medicine Research (CCMR), The University of Hong Kong.

[7] = In vivo biodistribution by IVIS fluorescence imaging; set-up: species or system BALB/c nude mice; settings: intravenous, DiR 100 μg/kg, HeLa tumor-bearing mice
Text: The tumors and major organs were excised for ex vivo fluorescence imaging 24-h post injection. […] It should be noted that the prodrug can be selectively activated in tumors by NIR light while those nanoparticles in the normal tissues and organs will not be activated, which can alleviate the side effects of chemotherapy.
BALB/c nude mice (female, 4 weeks, 15-20 g) were obtained from the Experimental Animal Center of University with access to food and water ad libitum. The animal experiment and procedures were approved by the Committee on the Use of Live Animals in Teaching & Research (CULATR), The University of Hong Kong. (Protocol No. 4381-17).
HeLa tumor-bearing mice was obtained by subcutaneously injecting HeLa cells for tumor implantation. HeLa cancer cells were collected by cell culture and trypsin digestion. The cells were washed by PBS and resuspended in DMEM medium without serum, in which collagen and Matrigel were added. 2×10^6 cells were dispersed in 100 μL mixture, which was subcutaneously injected into the mice at underarm area. […]
The biodistribution of free drug or nanoparticles in the HeLa tumor-bearing mice was measured by an in vivo fluorescence imaging system. […] The in vivo fluorescence imaging was performed at 1, 2, 8 and 24 h post injection and anesthesia at each time point. […]

[8] = λex 690 nm, 0.1 eq Os, N2, ε of Os(bptpy)2·2PF6 at 688 nm
[9] = 690 nm, 100 mW/cm^2, 5 min, 0.1 equiv. Os(bptpy)2^2+, N2-saturated solution

Compound	Quantum yield of drug release Φr ([1]; λex 690 nm, 0.1 eq Os, N2)	Quantum yield of prodrug photolysis Φp ([1]; λex 690 nm, 0.1 eq Os, N2)	Cross section Φpε(λex) [1, 8]	Cross section Φrε(λex) [1, 8]	photolytic yield (yield of free drug) [2, 9]	also measured
CC1=C(I)C(C)=[N+]2C1=C(COC(=O)NCCc1ccc(O)c(O)c1)c1c(C)c(I)c(C)n1[B-]2(C)C [BODIPY-DPA, BODIPY-dopamine]	0.60 ± 0.02%	0.86 ± 0.01%	228.90 ± 3.59 M⁻¹ cm⁻¹	159.00 ± 4.58 M⁻¹ cm⁻¹	69.04±1.99%	
COc1ccc(CCNC(=O)OCC2=C3C(C)=C(I)C(C)=[N+]3[B-](C)(C)n3c(C)c(I)c(C)c32)cc1OC [BODIPY-HVA, BODIPY-homoveratrylamine]	0.64 ± 0.03%	0.85 ± 0.04%	224.98 ± 9.83 M⁻¹ cm⁻¹	170.82 ± 9.14 M⁻¹ cm⁻¹	74.17±3.97%	
BODIPY-chlorambucil [BODIPY-Cb]	0.73 ± 0.04%	0.84 ± 0.01%	222.80 ± 2.90 M⁻¹ cm⁻¹		84.17±4.21%	max. yield of free Cb, one-photon upconversion-like photolysis [3]: 41.74%; Energy level S1 state [4]: 2.18 eV and 2.18^f eV; Energy level T1 state [4]: 1.52 eV and 1.52^g eV; T1 lifetime [4]: 21.82^e μs; Loading Capacity [5]: 0.27%; E (absorption coefficient at λabs, max) ([6]; at 543 nm): 89400 M⁻¹ cm⁻¹; λabs, max ([6]; dichloromethane solution with 2% acetone, 10 μM): 543 nm; λem, max ([6]; λex = 543 nm): 570^b nm; Cross section Φpε(λex) ([1]; λex 530 nm, Air): 2292.95 ± 730.79 M⁻¹ cm⁻¹; Cross section Φrε(λex) ([1]; λex 530 nm, Air): 171.63 ± 24.81 M⁻¹ cm⁻¹; Quantum yield of prodrug photolysis Φp ([1]; λex 530 nm, Air): 3.42 ± 1.09%; Cross section Φpε(λex) ([1]; λex 530 nm, N2): 16017.11 ± 2044.88 M⁻¹ cm⁻¹; Cross section Φrε(λex) ([1]; λex 530 nm, N2): 6016.62 ± 1895.28 M⁻¹ cm⁻¹; Quantum yield of drug release Φr ([1]; λex 530 nm, N2): 6.73 ± 2.12%; Quantum yield of prodrug photolysis Φp ([1]; λex 530 nm, N2): 23.89 ± 3.05%; Cross section Φpε(λex) ([1]; λex 690 nm, 0.1 eq Os, Air): 1.87 ± 1.11 M⁻¹ cm⁻¹; Cross section Φrε(λex) ([1]; λex 690 nm, 0.1 eq Os, Air): 0.49 ± 0.11 M⁻¹ cm⁻¹; photocleavage in air-saturated solution ([2]; 530 nm green light, air-saturated): retarded; decomposition of prodrug and generation of free Cb in air-saturated solution ([2]; 690 nm, with Os(bptpy)2^2+, air-saturated): mostly retarded
CCCCCCCCCCCCCCCCCCN1C(=CC=CC=CC=CC2=[N+](CCCCCCCCCCCCCCCCCC)c3ccccc3C2(C)C)C(C)(C)c2ccccc21.[I-] [DiR, 1,1′-dioctadecyl-3,3,3′,3′-tetramethylindotricarbocyanine iodide]						time within which the free dye was completely metabolized [7]: ≤ 8 h
CC1=C(I)C(C)=[N+]2C1=C(COC(=O)C(C)c1ccc(CC(C)C)cc1)c1c(C)c(I)c(C)n1[B-]2(C)C (centres unmarked) [BODIPY-IBF, BODIPY-ibuprofen]	0.42 ± 0.04%	0.85 ± 0.04%	226.34 ± 10.96 M⁻¹ cm⁻¹	111.67 ± 10.81 M⁻¹ cm⁻¹	48.49±4.69%	
CC1=C(I)C(C)=[N+]2C1=C(COC(=O)Cc1cccc3c(=O)c4ccc(C)c(C)c4oc13)c1c(C)c(I)c(C)n1[B-]2(C)C [BODIPY-DMXAA, BODIPY-vadimezan]	0.71 ± 0.06%	0.87 ± 0.01%	230.30 ± 1.43 M⁻¹ cm⁻¹	190.05 ± 16.63 M⁻¹ cm⁻¹	82.52±7.22%	prodrug decomposition [2, 9]: completely consumed
CCCCN(C(=O)OCC1=C2C(C)=C(I)C(C)=[N+]2[B-](C)(C)n2c(C)c(I)c(C)c21)c1ccc(C(=O)OCCN(C)C)cc1 [BODIPY-TCI, BODIPY-tetracaine]	0.36 ± 0.04%	0.81 ± 0.06%	215.84 ± 15.71 M⁻¹ cm⁻¹	95.21 ± 10.62 M⁻¹ cm⁻¹	41.34±4.61%	
COc1ccc2c(c1)c(CC(=O)OCC1=C3C(C)=C(I)C(C)=[N+]3[B-](C)(C)n3c(C)c(I)c(C)c31)c(C)n2C(=O)c1ccc(Cl)cc1 [BODIPY-IDM, BODIPY-indomethacin]	0.60 ± 0.04%	0.86 ± 0.02%	229.15 ± 5.23 M⁻¹ cm⁻¹	158.79 ± 10.80 M⁻¹ cm⁻¹	68.95±4.69%	
CC1=C(I)C(C)=[N+]2C1=C(COC(=O)/C=C/c1cccc(OCc3ccccc3)c1)c1c(C)c(I)c(C)n1[B-]2(C)C [BODIPY-BCA, BODIPY-benzyloxycinnamic acid]	0.75 ± 0.03%	0.80 ± 0.02%	213.33 ± 7.55 M⁻¹ cm⁻¹	200.64 ± 7.30 M⁻¹ cm⁻¹	87.12±3.17%	
CC1=C(I)C(C)=[N+]2C1=C(COC(=O)NCCc1ccc(O)cc1)c1c(C)c(I)c(C)n1[B-]2(C)C [BODIPY-TyrA, BODIPY-tyramine]	0.40 ± 0.02%	0.84 ± 0.02%	223.12 ± 6.28 M⁻¹ cm⁻¹	107.25 ± 5.46 M⁻¹ cm⁻¹	46.57±2.37%	
